Patent publication US7470706B2, “Cycloalkyl-substituted 7-amino-4-quinolone-3-carboxylic acid derivatives, process for their preparation and their use as medicaments” (Sanofi-Aventis Deutschland GmbH, priority 2004, dated 2008)

Biological target: T1, human glycogen phosphorylase a (Homo sapiens, UniProt P06737)
T1 sequence (P06737 1-847): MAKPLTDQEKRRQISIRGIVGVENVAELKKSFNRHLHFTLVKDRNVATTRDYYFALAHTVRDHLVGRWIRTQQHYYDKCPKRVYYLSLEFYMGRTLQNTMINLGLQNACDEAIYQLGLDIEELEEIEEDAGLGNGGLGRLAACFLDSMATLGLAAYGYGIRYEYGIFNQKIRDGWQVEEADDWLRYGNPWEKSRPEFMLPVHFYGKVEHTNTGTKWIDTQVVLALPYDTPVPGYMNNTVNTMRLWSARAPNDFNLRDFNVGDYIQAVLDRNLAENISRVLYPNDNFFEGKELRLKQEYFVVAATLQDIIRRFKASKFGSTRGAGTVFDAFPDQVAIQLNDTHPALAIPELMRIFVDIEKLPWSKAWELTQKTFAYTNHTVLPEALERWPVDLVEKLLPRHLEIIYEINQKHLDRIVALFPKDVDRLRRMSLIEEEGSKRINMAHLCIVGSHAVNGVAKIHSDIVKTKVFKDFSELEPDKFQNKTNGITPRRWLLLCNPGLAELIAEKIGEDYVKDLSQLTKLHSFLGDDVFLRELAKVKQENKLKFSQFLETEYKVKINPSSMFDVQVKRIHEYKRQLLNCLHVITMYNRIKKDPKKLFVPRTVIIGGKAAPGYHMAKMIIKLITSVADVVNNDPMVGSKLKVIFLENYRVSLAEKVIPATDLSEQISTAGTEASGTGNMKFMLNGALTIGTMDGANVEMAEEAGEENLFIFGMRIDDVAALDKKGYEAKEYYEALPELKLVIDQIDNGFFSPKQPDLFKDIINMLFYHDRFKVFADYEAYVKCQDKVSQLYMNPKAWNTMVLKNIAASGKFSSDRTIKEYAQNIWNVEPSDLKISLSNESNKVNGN
Test: Glycogen phosphorylase a activity assay
Type: biochemical
Conditions: 10 μM test substance; reverse direction (glycogen synthesis from glucose 1-phosphate), inorganic phosphate liberation
Experimental: Glycogen Phosphorylase a Activity Assay
The effect of compounds on the activity of the active form of glycogen phosphorylase (GPa) was measured in the reverse direction by following the synthesis of glycogen from glucose 1-phosphate by determining the liberation of inorganic phosphate. All the reactions were carried out as duplicate determinations in microtiter plates with 96 wells (Half Area Plates, Costar No 3696), measuring the change in absorption owing to the formation of the reaction product at the wavelength specified hereinafter in a Multiskan Ascent Elisa Reader (Lab Systems, Finland).
In order to measure the GPa enzymic activity in the reverse direction, the general method of Engers et al. (Engers H D, Shechosky S, Madsen N B, Can J Biochem 1970 July; 48(7):746-754) was used to measure the conversion of glucose 1-phosphate into glycogen and inorganic phosphate, with the following modifications: human glycogen phosphorylase a (for example with 0.76 mg of protein/ml (Aventis Pharma Deutschland GmbH), dissolved in buffer solution E (25 mM β-glycerophosphate, pH 7.0, 1 mM EDTA and 1 mM dithiothreitol) was diluted with buffer T (50 mM Hepes, pH 7.0, 100 mM KCl, 2.5 mM EDTA, 2.5 mM MgCl2.6H2O) and addition of 5 mg/ml glycogen to a concentration of 10 μg of protein/ml. […] After incubation at 45° C. for 60 minutes, the absorption at 820 nm was measured. […]

| Structure (SMILES) | inhibition at 10 µM |
| --- | --- |
| C#CC1(Nc2cc3c(=O)c(C(=O)OCC)cn(CC)c3nc2C)CCCCC1 [Example 2] | 42% |
| C#CC1(Nc2cc3c(=O)c(C(=O)O)cn(CC)c3nc2C)CCCCC1 [Example 3, 1-Ethyl-6-(1-ethynylcyclohexylamino)-7-methyl-4-oxo-1,4-dihydro[1,8]naphthyridine-3-carboxylic acid] | 35% |
